This is an account of results in patent publication US11760773B2, “Small molecule drug conjugates of gemcitabine monophosphate” (MaveriX Oncology, Inc., priority 2018, dated 2023).

Each structure is given as a SMILES string. Read-outs that look alike come from different tables or passages of the source.

One series has as its system UT-SCC-16B. Put plainly: Tumor cell proliferation (alamarBlue) cytotoxicity assay, UT-SCC-16B. Format: cell-based, human. The note with it: Homo sapiens, 72 hours treatment. The protocol: A tumor cell proliferation assay was used to determine cytotoxicity IC50 values for the phosphate prodrug Compounds 1-9, the parent non-phosphorylated SMDC parent compounds, and the effector (gemcitabine) across eight primary early-passage human head and neck squamous cell carcinoma cell lines including UT-SCC-5, UT-SCC-8, UT-SCC-9, UT-SCC-10, UT-SCC-14, UT-SCC-16A, UT-SCC-16B, and UT-SCC-24A.
UTSCC cells were seeded at 4000 cells/100 I/well on 96-well black clear-bottom tissue culture plate. Cells were incubated at 37° C. and 5% CO2 overnight to allow them to recover and re-attach. The next day cells were treated with the test compound (0-100 μM) for 72 hours. After treatment, cell proliferation was measured by Fluorescent quantitation of alamarBlue reagent. The alamarBlue assay incorporates a fluorometric/colorimetric growth indicator based on detection of metabolic activity. Specifically, resazurin, the active ingredient of alamarBlue reagent, is blue in color and virtually non-fluorescent. Upon entering cells, resazurin is reduced to resorufin, a compound that is red in color and highly fluorescent.
Continued cell growth maintains a reduced environment, therefore increasing the overall fluorescence and color of the media surrounding cells. The fluorescence intensity of alamarBlue reagent was directly proportional to cell number. To perform the alamarBlue assay, 10 I of alamarBlue reagent was added to each well and the plate was incubated at 37° C. for an additional 2 hour. Fluorescence intensity was measured at an excitation of 530 nm and an emission of 590 nm using a BioTek Synergy™ 2 microplate reader.
Cell proliferation assays in triplicate were performed at each concentration. The fluorescent intensity data were analyzed using the computer software, Graphpad Prism. In the absence of the compound, the fluorescent intensity (Ft) in each data set was defined as 100%. In the absence of cells, the fluorescent intensity (Fb) in each data set was defined as 0%. The percent cell in the presence of each compound was calculated according to the following equation: % cell=(F−Fb)/(Ft−Fb), where F=the fluorescent intensity in the presence of the compound, Fb=the fluorescent intensity in the absence of cells, and Ft=the fluorescent intensity in the absence of the compound. The values of % cell versus a series of compound concentrations were then plotted using non-linear regression analysis of Sigmoidal dose-response curve generated with the equation Y=B+(T−B)/1+10^((Log EC50-X)×Hill Slope) where Y=percent cell, B=minimum percent cell, T=maximum percent cell, X=logarithm of compound and Hill Slope=slope factor or Hill coefficient. The IC50 value was determined by the concentration causing a half-maximal percent activity.
(The colour change of resazurin is a common sign of viable cells or microbes.)

For series [1] the following is noted: in the clinic; cited from earlier work.
The nature of series [2]: Plasma PK of Int 3-3 in CD-1 mice (study c). Format: in vivo. The note with it: after iv Int 3-3 8.8 mg/kg. The protocol: Objectives: to determine the plasma pharmacokinetics of Int 3-3 following a single intravenous infusion of Int 3-3 at 8.83 mg/kg in CD-1 mice
PK measurements: compare PK parameters C0, CL, Vdss, Cmax, tmax, t1/2, AUC(0-t), AUC(0-inf), MRT(0-t), MRT(0-inf) for Int 3-3.

Series [3] is described as follows: Gemcitabine normal tissue and plasma PK in CD-1 mice (study e). Format: in vivo. The note with it: male CD-1 mice, iv gemcitabine, FIG. 6. The protocol: Objectives: to determine the normal tissue pharmacokinetics, distribution, and stability of gemcitabine in select excretory organs and plasma following a single intravenous infusion administration of gemcitabine at 10.5 mg/kg in male CD-1 mice.
PK measurements: determine PK parameters C0, CL, Vdss, Cmax, tmax, t1/2, AUC(0-t), AUC(0-inf), MRT(0-t), MRT(0-inf) for gemcitabine

A short description of the next series: Solubility / formulation. Format: physicochemical.
Another series is described as follows: Rat plasma stability. Format: in vitro ADME. As for the experimental part:
Method: Assay was carried out in 96-well microtiter plates. Compounds were incubated in replicates (n=2) for 0, 5, 15, 30, and 45 minutes at 37° C. Reaction mixtures (20 μL) contained a final concentration of 3 μM test compound in fresh Sprague Dawley rat plasma. Eucatropine is a positive control to verify assay performance. Linear regression of semi-log plot of % remaining of compounds versus time used to determine the half-life t1/2 values.

A short description of series [4]: Liver microsomal stability, rat. Format: in vitro ADME. The note with it: rat liver microsomes. In general terms: Microsomes from liver hold many membrane-bound enzymes, among them those of drug oxidation.
The nature of series [5]: Liver microsomal stability, monkey. Format: in vitro ADME. The note with it: monkey liver microsomes.
Another series in a line: Dog liver S9 stability. Format: in vitro ADME. The note with it: for microsomal CLint: dog.
A short description of series [6]: Liver microsomal stability, dog. Format: in vitro ADME. The note with it: dog liver microsomes.
A short description of a further series: Mouse liver S9 stability. Format: in vitro ADME. The note with it: for microsomal CLint: mouse.
The nature of a further series: Rat liver S9 stability. Format: in vitro ADME. The note with it: for microsomal CLint: rat.

The term IC50 denotes the concentration that inhibits the measured activity by half. As a reminder, the AUC(0-t) is the area under the concentration-time curve up to a stated or last time point. A word on the Cmax: it is the maximum level reached in the sampled fluid or tissue. A word on the Tmax: it is the time from dosing to the highest level. Take `Nc1ccn([C@@H]2O[C@H](CO)[C@@H](O)C2(F)F)c(=O)n1` [Gemcitabine, gemcitabine]: the IC50 with UT-SCC-16B amounted to 99 nM. Moreover, in [1], the “injected dose recovered in the urine” value is 90% and the “share of the dose recovered in urine found as this species” value is on record as 1%. For the same compound, the AUC0-inf/AUC0-last in series [2] stood at 113%. For the same compound, in [2] (mouse), the AUC(0-t) came out at 63.5 ng·h/mL and the half-life is 1.38 h. Also, the AUC(0-inf) in [2] (mouse, read-out: AUC0-inf) came out at 71.9 ng·h/mL. In [2] (mouse, read-out: Cmax), the Cmax was 73.4 ng/mL. For the same compound, in [2] (mouse, read-out: MRT0-inf), the MRT inf is 1.69 h. The MRT last in series [2] (mouse, read-out: MRT0-last) turned out to be 1.13 h. Further, in series [2] (mouse, read-out: Tmax), the Tmax was 0.0611 h. The “fate in plasma and normal tissue” value in [3] is “deaminated to dFdU”.

Take `COc1cc(OC)c2oc(COC(=O)Nc3ccn([C@@H]4O[C@H](CO)[C@@H](O)C4(F)F)c(=O)n3)cc2c1` [Int 1-4, (5,7-di(methoxy)benzofuran-2-yl)methyl (1-((2R,4R,5R)-3,3-difluoro-4-hydroxy-5-(hydroxymethyl)tetrahydrofuran-2-yl)-2-oxo-1,2-dihydropyrimidin-4-yl)carbamate]: in “Solubility / formulation”, the solubility result was “low to moderate solubility”. The “formulated to” value in the series “Solubility / formulation” (formulation) stood at 50 mg/mL. In addition, the “Slope Mean ± SE” value in the series “Rat plasma stability” (Sprague Dawley rat plasma, 3 μM, 37° C.) is recorded as −0.009305 ± 0.001423; in “Dog liver S9 stability” (dog liver S9) it was −0.005558 ± 0.000749; in “Mouse liver S9 stability” (mouse liver S9) it was −0.00317 ± 0.000413; in the series “Rat liver S9 stability” (rat liver S9), −0.03579 ± 0.001471. The half-life at 3 μM in the series “Rat plasma stability” (Sprague Dawley rat plasma, read-out: t1/2 (converted)) is about 1.2 h; in “Rat plasma stability” (fresh Sprague Dawley rat plasma, 3 μM, 37° C., read-out: t1/2 Mean ± SE), 1.24 ± 0.19 h. For the same compound, in the series on UT-SCC-16B, the IC50 came to 162 nM. Further, the CLint in [4] came to 297 μL/min/mg protein. The half-life amounted to 4.66 min in series [4]; 0.567 h in series [5]; 2.08 ± 0.28 h in the series “Dog liver S9 stability” (dog liver S9, read-out: t1/2 Mean ± SE); 2.4 h in [6]; 3.64 ± 0.475 h in the series “Mouse liver S9 stability” (mouse liver S9, read-out: t1/2 Mean ± SE); 0.323 ± 0.0133 h in the series “Rat liver S9 stability” (rat liver S9, read-out: t1/2 Mean ± SE). Moreover, the microsomal CLint in [4] is 297 µL/min/mg; in series [5], 40.8 µL/min/mg; in the series “Dog liver S9 stability” (liver S9, dog liver S9, read-out: CLint Mean ± SE), 2.22 ± 0.299 µL/min/mg; in “Dog liver S9 stability” (liver S9, dog liver S9 experiment, read-out: intrinsic clearance value) it was 2.2 µL/min/mg; in [6] it was 9.63 µL/min/mg; in “Mouse liver S9 stability” (liver S9, mouse liver S9, summary, read-out: S9 intrinsic clearance Clint), under 2.5 µL/min/mg. Besides, the microsomal CLint stood at 1.27 µL/min/mg in “Mouse liver S9 stability” (liver S9, mouse liver S9, text value, read-out: intrinsic clearance value); 1.27 ± 0.165 µL/min/mg in “Mouse liver S9 stability” (liver S9, mouse liver S9, read-out: CLint Mean ± SE); 14.3 µL/min/mg in “Rat liver S9 stability” (liver S9, rat liver S9, text value, read-out: intrinsic clearance value); 14.3 ± 0.588 µL/min/mg in the series “Rat liver S9 stability” (liver S9, rat liver S9, read-out: CLint Mean ± SE). For the same compound, the “Compound Remaining (% of 0 min) 0 min” value in series [4] (0 min), in series [5] (0 min) and in [6] (0 min) was 100 % of 0 min each time. Besides, the “Compound Remaining (% of 0 min) 5 min” value in [4] (5 min) is recorded as 64.7 % of 0 min; in [5] (5 min), 99.5 % of 0 min; in series [6] (5 min), 97.1 % of 0 min. Besides, the entries for the “Compound Remaining (% of 0 min) 15 min” value in series [4] (15 min), in [5] (15 min) and in [6] (15 min) were 20.0 % of 0 min, 79.8 % of 0 min and 90.8 % of 0 min, respectively. In addition, the “Compound Remaining (% of 0 min) 30 min” value in series [4] (30 min) is 1.81 % of 0 min; in [5] (30 min) it was 61.0 % of 0 min; in series [6] (30 min), 85.7 % of 0 min. For the same compound, the “Compound Remaining (% of 0 min) 45 min” value in series [4] (45 min) is 0.13 % of 0 min; in series [5] (45 min), 40.5 % of 0 min; in series [6] (45 min), 80.4 % of 0 min. In addition, the “Compound Remaining (% of 0 min) control” value in series [4] (control) is recorded as 95.6 % of 0 min; in [5] (control), 97.2 % of 0 min; in [6] (control) it was 94.5 % of 0 min. In addition, the intrinsic clearance value in the series “Dog liver S9 stability” (dog liver S9 experiment) is given as under 2.5 μL/min/mg protein; in “Rat liver S9 stability” (rat liver S9, text value) it was about 14 μL/min/mg protein.

`O=c1ccn(C2OC(CO)C(O)C2(F)F)c(=O)[nH]1` (stereo not shown) [dFdU]: the “share of the dose recovered in urine found as this species” value in series [1] is listed as 99%. In series [2], this compound displayed an AUC0-inf/AUC0-last of 146%, an AUC0-last of 942 ng·h/mL, an AUC(0-inf) of 1403 ng·h/mL and a Cmax of 168 ng/mL. Also, in [2], the MRT0-inf is recorded as 7.48 h, the MRT0-last worked out at 3.67 h, the T1/2 stood at 5.22 h and the Tmax was 4.00 h.
